# Measurements from ChEMBL document CHEMBL1157539, “Thousands of chemical starting points for antimalarial lead identification” (Nature, 2010).
# Tested on: Plasmodium falciparum
# Test: GSK_TCMDC: Inhibition of Plasmodium falciparum 3D7 in whole erythrocytes, using parasite LDH activity as an index of growth.
# Format: functional, organism-based
# Settings: not given
row,Compound,XC50
1,COc1cccc(/C=C/C(=O)NC2CCC(CN3CCC(c4c[nH]c5ccccc45)CC3)CC2)c1 (stereo not given),834 nM

# Same assay, conditions: Plasmodium falciparum, 3D7
row,Compound,XC50
1,Cn1c(NC(=O)C2CCC(CNC(=O)c3ccc(O)c(-c4cccc([N+](=O)[O-])c4)c3)CC2)nc2ccccc21 (stereo not given),982 nM
2,CCCN1CCN(CC(O)CNC(=O)Nc2ccc(Cl)cc2)CC1 (stereo not given),96.9 nM
3,O=C(NC1CCN(c2ccnc3ccccc23)C1)c1cccc(C(F)(F)F)c1 (stereo not given),897 nM
4,Cc1noc(-c2ccccc2)c1CN1CCCC2(CC(C(=O)NCc3cccc(F)c3F)=NO2)C1 (stereo not given),1010 nM
5,OC(CNc1ccnc(Nc2ccccc2)n1)c1ccc(C(F)(F)F)cc1 (stereo not given),606 nM
6,CCn1c(-c2nonc2N)nc2c(C#CC(C)(C)O)ncc(OCCNCCc3ccc(OC)cc3)c21,957 nM
7,CCN(CC)CCCSc1ccc(-c2ccc(SCCCN(CC)CC)cc2)cc1,1160 nM
8,O=C(C=Cc1ccc(Cl)c(Cl)c1)NCCCCCN1CCCC(CCCNC(=O)c2ccc3c(c2)OCO3)C1 (stereo not given),1220 nM
9,O=C(Nc1ccc(OC2CCN(Cc3ccc(F)cc3)CC2)c(Cl)c1)c1cccs1,318 nM
10,c1ccc(-c2nnc(-c3ccccn3)nc2NC2CCCCC2)cc1,910 nM
11,Cc1ccc(NC(=O)c2ccc(CN3CCCN(Cc4cccc(O)c4)CC3)cc2)cc1,743 nM
12,O=C(Cc1cc(F)cc(F)c1)NC1CCN(c2ccnc3cc(Cl)ccc23)C1 (stereo not given),250 nM
13,CCN(CC)CCNC(=O)c1ccc(NC(=O)c2cn(-c3ccccc3)nc2-c2cccs2)cc1,258 nM
14,Cc1ccc(-c2noc(=O)n2CC(=O)Nc2ccccc2-c2ccccc2)cc1,807 nM
15,CC(C)=CCc1c(-c2ccc(O)cc2O)oc2c3c(cc(O)c2c1=O)OC(C)(C)C=C3 [MORUSIN],977 nM
16,CCOC(=O)C1=C(C)NC2=C(C(=O)CCC2)C1c1cn(Cc2ccc(Cl)cc2Cl)nc1-c1ccccc1 (stereo not given),625 nM
17,Cn1cncc1CCN(Cc1ccc(-c2ccc(C(F)(F)F)cc2)cc1)C(=O)Cn1c(SCc2cccc(F)c2F)cc(=O)c2ccccc21,990 nM
18,CCc1ccc(C2CCN(CCCCNC(=O)c3ccc(NC(=O)c4ccc(Cl)cc4)cc3)CC2)c(OCCO)c1,1390 nM
19,COc1ccc(-c2nc3c(NCc4ccccc4)nccc3[nH]2)c(OC)c1,778 nM
20,Nc1nc(N)c2c(ccc3ccccc32)n1,749 nM
21,CC(C)CC(=O)N1CCNC[C@@H]1C(=O)NCCSCc1c(F)cccc1Cl,1200 nM
22,Cc1cccc(C)c1CNc1ccnc2cc(C#N)ccc12,684 nM
23,Cn1nc(C(F)(F)F)cc1-c1ccc(C(=O)NC2CCC(CN3CCC(c4c[nH]c5ccccc45)CC3)CC2)s1 (stereo not given),565 nM
24,Oc1ccc2nc(NCCCc3ccccc3)nc(NCCCc3ccccc3)c2c1,398 nM
25,CCOC(=O)c1c(CNc2ccncc2)n(C)c2cc(Br)c(OC(C)=O)cc12,370 nM

row,Compound,XC50
1,c1ccc(-c2cccc(-c3ccccn3)n2)nc1 [TERPYRIDINE],901 nM
2,C=CC[C@H](C[C@H](O)[C@H](Cc1ccccc1)NC(=O)c1ccc(-c2cccnn2)cc1)C(=O)NC1CCCCC1,1190 nM
3,COc1cc(O)c2c(=O)c(OC)c(-c3cccc(Cl)c3OC3O[C@H](CO)[C@@H](O)[C@H](O)[C@H]3O)oc2c1OC (stereo not given in full),774 nM
4,Cc1cc(N(C)C)nc(Nc2ccc(NC(=O)c3ccccc3C)cc2)n1,1130 nM
5,N#Cc1ccc(CNCCCCCCCNCc2ccc(-c3ccccc3)cc2)cc1,970 nM
6,COc1ccccc1C1CC(c2ccccc2)=NN1C(=O)c1ccccc1 (stereo not given),296 nM
7,CN1CCN(c2ccnc3ccc(NC(=O)Nc4cccc(C#N)c4)cc23)CC1,799 nM
8,Cc1cc(N[C@@H](Cc2ccccc2)C(=O)NC2CCCC2)nc(NCc2ccccc2C)n1,1230 nM
9,O=C(NCCN1CCCC1)c1cccc(-c2ccc(-c3nc4cc(F)ccc4[nH]3)s2)c1,1530 nM
10,Cc1ccccc1C1CCN(C2CCC(NC(=O)/C=C/c3cccc(Cl)c3F)CC2)CC1 (stereo not given),1140 nM
11,COCCOc1nc(N)nc2ncc(Cc3cc(OC)ccc3OC)c(C)c12,426 nM
12,Cc1ccc(Nc2nc(C)cc(Nc3cccc(C#N)c3)n2)cc1,978 nM
13,OCC1CCN(Cc2cccc(-c3ccc(-c4nc5cc(F)ccc5[nH]4)cc3)c2)CC1,720 nM
14,COc1ccc(CC(=O)NC(CCCN2CCC(c3ccccc3)CC2)c2ccc(Cl)c(Cl)c2)cc1OC (stereo not given),1050 nM
15,Nc1nc(N)c2cc(N(Cc3ccccc3)Cc3ccccc3)ccc2n1,612 nM
16,Cc1ccc(CON2C(N)=NC(N)=NC2(C)C)c(Cl)c1.Cc1ccc(CON2C(N)=NC(N)=NC2(C)C)cc1Cl,3.2 nM
17,Cc1c(C(=O)NCc2ccncc2)sc2nc(-c3cccc([N+](=O)[O-])c3)cn12,913 nM
18,O=C(/C=C/c1ccc(-c2nc3ccc(Cl)cc3[nH]2)cc1)NCc1cccc(F)c1,640 nM
19,Cc1nnsc1C(=O)Nc1cccc(-c2cccc(-c3nc4cc(F)ccc4[nH]3)c2)c1,218 nM
20,COc1cc(NCC2(CNCc3cn(Cc4ccccc4)c4ccccc34)CCCCC2)nc2ccccc12,946 nM
21,CCOC(=O)c1ccc(-c2c(C(F)(F)F)noc2-c2cc(CC)c(OC)cc2O)o1,206 nM
22,O=C(Nc1cccc(OC2CCN(Cc3ccccc3)CC2)c1)c1ccc([N+](=O)[O-])cc1,661 nM
23,CO/C(=C\C=C\c1cc2cc(Cl)c(Cl)cc2[nH]1)C(=O)NCCCN1CCN(c2cccc(Cl)c2)CC1,730 nM
24,O=C(Nc1cccc(CN2CCCN(Cc3ccc(F)cc3)CC2)c1)c1cc2ccccc2s1,794 nM
25,CCCSc1nc2c(c(=O)n1Cc1ccco1)C1(CCCCC1)Cc1ccccc1-2,424 nM

row,Compound,XC50
1,Cc1ccc(NC(=O)c2ccc(NCCCN(C)Cc3ccccc3)c([N+](=O)[O-])c2)cc1F,701 nM
2,CCCNC(=O)C1CCN(C(c2ccc(Cl)cc2)c2ccc(Cl)cc2)CC1,479 nM
3,CCN(CC)CCCN(C(=O)c1cc2c(C)nn(-c3ccccc3)c2s1)c1nc(-c2ccc(OC)cc2)cs1,1150 nM
4,O=C(NC1CCN(Cc2ccsc2)CC1)c1ccc(-c2cccc(C(F)(F)F)c2)s1,1440 nM
5,Nc1nc(N)c2c(CCc3ccc4ccccc4c3)cccc2n1,693 nM
6,Cc1cc(OCCCN2CCC(NS(=O)(=O)c3cc(Br)c(Cl)s3)CC2)c2ccccc2n1,851 nM
7,Cc1noc(C)c1-c1cccc(CNCc2ccc(-c3cccc(-c4nc5ccccc5[nH]4)c3)cc2)c1,569 nM
8,CCOc1cc(C(=O)NC2CC(C)(C)N(C)C(C)(C)C2)ccc1-c1nc2cc(Cl)c(Cl)cc2[nH]1,861 nM
9,OC(CNC12CC3CC(CC(C3)C1)C2)c1cccc(C(F)(F)F)c1 (stereo not given),301 nM
10,Cc1cc(N2CCCC2)nc(NC(=N)Nc2cccc(C(F)(F)F)c2)n1,315 nM
11,COc1cccc(/C=C/C(=O)NC2CCC(CN3CCC(c4c[nH]c5ccccc45)CC3)CC2)c1 (stereo not given),765 nM
12,O=C(/C=C/c1ccc([N+](=O)[O-])cc1)N1CCC(NS(=O)(=O)c2ccc(Br)cc2)CC1,1050 nM
13,CNCCNCc1cccc(-c2ccc(-c3nc4ccccc4[nH]3)s2)c1,830 nM
14,C/C=C/COc1ccc2ccccc2c1CNCCCCCCCCNCc1c(OC/C=C/C)ccc2ccccc12,908 nM
15,CN1CCCN(Cc2cccc(-c3ccc(NS(=O)(=O)c4cccc5cccnc45)cc3)c2)CC1,957 nM
16,CN1CCN(c2ccnc3cc4ccccc4cc23)CC1,947 nM
17,CS(=O)(=O)Nc1ccc2[nH]cc(C3CCN(CC4CCC(NC(=O)/C=C/c5ccc(Cl)c(Cl)c5)CC4)CC3)c2c1 (stereo not given),847 nM
18,CCCCCCCCc1c(C)nc(C)c(Br)c1O,824 nM
19,CCOC(=O)CCCN1C(=O)CN=C(c2ccccc2)c2cc(Cl)ccc21,778 nM
20,COc1ccc2ncc(F)c(CCN3CC(O)C(CNCc4ccccc4)C3)c2n1 (stereo not given),910 nM
21,O=C(/C=C/c1ccc(Cl)c(Cl)c1)N(Cc1ccccc1)C1CCC(CN2CCC(c3c[nH]c4ccccc34)CC2)CC1 (stereo not given),209 nM
22,COc1cc(C2NCC3(CCOCC3)c3cc4c(cc32)OCCO4)cc(OC)c1OC (stereo not given),169 nM
23,CN1CCC(N2CCN(Cc3ccc(-c4ccc(-c5nc6cc(F)ccc6[nH]5)s4)cc3)CC2)CC1,153 nM
24,Nc1c(Cl)cc(C(O)CNCCCCCOCCCc2ccc(O)c3ncccc23)cc1Cl (stereo not given),992 nM
25,Cc1ccc(Oc2c(-c3ccccc3CN3CCCC3CN(C)C)cnn(C)c2=O)cn1 (stereo not given),1160 nM

row,Compound,XC50
1,Cc1cc(N[C@@H](Cc2ccccc2)C(=O)NCc2cccc(F)c2)nc(NCC2CCCCC2)n1,855 nM
2,O=C(NC(Nc1ccc([N+](=O)[O-])cc1)C(Cl)(Cl)Cl)c1ccc(Cl)cc1 (stereo not given),782 nM
3,O=C(/C=C/c1ccc(Cl)c(Cl)c1)NC1CCC(CN2CCC(c3nc4cc(O)ccc4[nH]3)CC2)CC1 (stereo not given),241 nM
4,CC(C)COc1ccc(Cl)cc1Cc1ccc(-c2nc3ccc(F)cc3[nH]2)o1,854 nM
5,O=C(Nc1ccc(Cl)cc1)N1CCN(C2CCCCC2)CC1,986 nM
6,CC1(C)N=C(N)N=C(N)N1c1cc(Cl)c(Cl)cc1Cl,181 nM
7,O=C(CSc1nccn1C1CCCC1)Nc1cc(C(F)(F)F)ccc1Cl,382 nM
8,Cc1ccc(CCC(C)NCC(O)c2cccc(Cl)c2)cc1 (stereo not given),804 nM
9,Fc1ccc2[nH]c(-c3cccc(-c4cccc(CNCCN5CCNCC5)c4)c3)nc2c1,842 nM
10,CN(c1ccc(NC(=O)CCOc2ccccc2)cc1)C1CCN(Cc2cccc(O)c2)CC1,1320 nM
11,CCN(CCCN1CCCCC1)c1cc(C)nc(Nc2ccc(F)c(C(F)(F)F)c2)n1,147 nM
12,O=C(Nc1cccc(-c2cccc(-c3nc4ccccc4[nH]3)c2)c1)c1csnn1,921 nM
13,CCCN(CCC)C(=S)N/N=C1/C(=O)Nc2ccccc21,815 nM
14,COc1ccc(Nc2cc(C)nc(NCc3ccc4c(c3)OCO4)n2)cc1,766 nM
15,O=C(/C=C/c1ccc(Cl)c(Cl)c1)NCCCCCN1CCCN(C(=O)Nc2cc(F)cc(F)c2)CC1,768 nM
16,CNC(=O)c1cnc(Nc2ccc(N3CCN(C)CC3)cc2)nc1Nc1cccc([N+](=O)[O-])c1,288 nM
17,Cc1cc(N2CCN(CC3CCN(C)CC3)CC2)nc(Nc2ccc(Br)cc2)n1,442 nM
18,CCCCOc1ccc(C(O)C(CN2CCCCC2)c2ccccc2)cc1 (stereo not given),893 nM
19,COc1ccccc1-n1ccnc1SCC(=O)Nc1cc(C(F)(F)F)ccc1Cl,9.3 nM
20,c1cc(CNC2CCCC2)cc(-c2ccc(CNc3ccc4ncccc4c3)cc2)c1,773 nM
21,COc1cc(CN2CCC(N3CCc4cc(NC(=O)c5cc(C)on5)ccc43)C2)ccc1F (stereo not given),607 nM
22,O=S(=O)(NCCN1CCCC1)c1ccc(-c2ccc(CNCc3ccc(F)cc3)cc2)s1,838 nM
23,Cc1nc(-c2ccc(-c3ccc(NC(=O)c4coc5ccc(N6CC(C)N(C)C(C)C6)cc45)cc3)c(C)c2)no1 (stereo not given),767 nM
24,CCCCOc1c(CCC)cc(Cc2cnc(N)nc2N)cc1CCC,629 nM
